Measured values reported in article PMC10458698, “Characterization of the interferences of systemic azole antifungal drugs with adrenal steroid biosynthesis using H295R cells and enzyme activity assays” (Current Research in Toxicology, 2023).
Where “and” joins values, the source holds several entries; their conditions need not be identical. Equal values may be shown once.

How the values were obtained:
11β-HSD2 = system: 11β-HSD2; design: method as in Beck et al., 2017, Beck et al., 2020a; details: ref Beck et al., 2017, Beck et al., 2020a; cited from earlier work
CYP21A2 = target: T1, CYP21A2 (Homo sapiens, UniProt P08686); assay: CYP21A2 activity assay, microsomes of transfected COS-1 cells; type: biochemical; details: cell-free; for IC50: progesterone 500 nM, 10 min
T1 construct: host or cells: COS-1 cells, transient transfection, microsomal fraction
T1 sequence (P08686 1-495): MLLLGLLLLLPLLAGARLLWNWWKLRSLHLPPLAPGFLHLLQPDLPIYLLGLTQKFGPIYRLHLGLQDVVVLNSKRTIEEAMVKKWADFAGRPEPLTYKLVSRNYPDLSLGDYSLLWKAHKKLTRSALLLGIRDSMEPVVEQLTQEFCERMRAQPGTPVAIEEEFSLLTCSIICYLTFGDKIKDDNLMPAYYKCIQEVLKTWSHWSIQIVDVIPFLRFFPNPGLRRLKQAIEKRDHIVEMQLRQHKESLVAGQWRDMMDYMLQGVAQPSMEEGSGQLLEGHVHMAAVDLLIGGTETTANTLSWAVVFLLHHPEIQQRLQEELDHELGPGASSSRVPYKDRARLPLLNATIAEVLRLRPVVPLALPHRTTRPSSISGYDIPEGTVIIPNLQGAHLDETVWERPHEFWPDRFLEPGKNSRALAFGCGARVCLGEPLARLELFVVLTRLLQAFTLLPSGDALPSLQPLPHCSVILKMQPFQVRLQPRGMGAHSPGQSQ
Experimental: Microsomes were prepared from COS-1 cells transiently transfected with plasmids for either CYP17A1 and POR for CYP17A1-hydroxylase assay (human CYP17A1 was available in our own plasmid collection after cloning into pcDNA3, POR was ordered from Genescript, Piscataway, USA, clone ID OHu25584C), CYP17A1, POR and cytochrome b5 for CYP17A1 17,20-lyase assay (cytochrome b5 was from Genescript, clone ID OHu09495D), POR and CYP21A2 (Genescript, CYP21A2 clone ID OHu18602D), or 3β-HSD2 (Genescript, clone ID OHu14034D). Transfection was performed using PEI and equal amounts of required plasmids with a total DNA amount of 8 µg per transfection of 3,000,000 cells. After overnight incubation, cells were washed with prewarmed PBS before adding ice-cold PBS. Cells were collected and centrifuged at 600 × g for 4 min at 4 °C, washed with ice cold PBS and centrifuged again. The pellet was resuspended in a resuspension buffer (20 mM Tris, pH 7.5, 50 mM KCl, 2 mM MgCl2, 0.25 M sucrose). Cells were disrupted with 30 S by a glass potter (2 cm^3) as described above. The homogenate was centrifuged for 20 min at 12,000 × g and 4 °C. Microsomes were pelleted by ultracentrifugation at 100,000 × g for 1 h at 4 °C. The pellet was resuspended in reaction buffer and the protein concentration determined using the Pierce Protein BCA kit as described above.
Microsomal protein (250 µg/mL) was preincubated with 1 mM NADPH and the compound of interest in reaction buffer for 10 min. The reaction was started by adding progesterone spiked with a radioactive tracer (final activity 0.025 mCi) to a final concentration of 500 nM. After 10 min of incubation at 37 °C the reaction was stopped by adding enzyme substrate and product at a final concentration of 1 mM in methanol, followed by shock-freezing in liquid nitrogen. Steroids were separated by thin layer chromatography on SIL G-25 UV254 TLC plates (Macherey-Nagel, Düren, Germany) using chloroform and ethyl acetate (1:4; v:v). Bands were excised and radiolabeled steroids analyzed by scintillation counting using […] Plus cocktail (Zinsser Analytic, Frankfurt am Main, Germany) and a β-counter (Packard, Connecticut, USA). Relative conversion was calculated based on total counts.

CYP11A1 = target: T2, CYP11A1 (Homo sapiens, UniProt P05108); design: method as in Mast et al., 2013, Vanden Bossche et al., 1986; details: in words, ref Mast et al., 2013, Vanden Bossche et al., 1986; cited from earlier work
T2 construct: host or cells: V79-4 cells (Chinese hamster), transient transfection, mitochondrial fraction
T2 sequence (P05108 40-521): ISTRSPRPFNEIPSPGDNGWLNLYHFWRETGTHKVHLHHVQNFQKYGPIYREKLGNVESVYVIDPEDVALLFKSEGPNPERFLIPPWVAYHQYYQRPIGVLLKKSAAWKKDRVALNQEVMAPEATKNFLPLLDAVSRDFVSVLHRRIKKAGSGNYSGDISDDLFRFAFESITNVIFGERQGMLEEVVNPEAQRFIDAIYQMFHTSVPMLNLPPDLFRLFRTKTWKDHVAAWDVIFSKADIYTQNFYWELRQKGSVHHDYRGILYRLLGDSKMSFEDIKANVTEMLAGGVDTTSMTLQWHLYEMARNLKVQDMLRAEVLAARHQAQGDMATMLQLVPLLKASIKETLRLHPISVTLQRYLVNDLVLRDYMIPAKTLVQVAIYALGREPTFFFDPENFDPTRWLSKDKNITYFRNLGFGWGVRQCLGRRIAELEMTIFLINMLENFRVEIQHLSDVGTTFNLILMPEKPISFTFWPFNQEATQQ

[1] = design: method as in Nguyen et al., 2020; details: ref Nguyen et al., 2020; cited from earlier work

| Structure (SMILES) | IC50 (11β-HSD2) | inhibition of CYP21A2 (CYP21A2; in words) | IC50 (CYP21A2) | CYP11A1 inhibition in earlier studies (CYP11A1) | serum concentration with increased risk of pseudohyperaldosteronism [1] |
| --- | --- | --- | --- | --- | --- |
| C[C@@H](c1nc(-c2ccc(C#N)cc2)cs1)[C@](O)(Cn1cncn1)c1cc(F)ccc1F [isavuconazole] | ~10000 nM | weak inhibition | 8.1 µM and 8.14 µM | – | – |
| CCC(C)n1ncn(-c2ccc(N3CCN(c4ccc(OCC5COC(Cn6cncn6)(c6ccc(Cl)cc6Cl)O5)cc4)CC3)cc2)c1=O (stereo not shown) [itraconazole] | 140 nM | – | > 10 µM | no substantial inhibition | – |
| CC[C@@H]([C@H](C)O)n1ncn(-c2ccc(N3CCN(c4ccc(OC[C@@H]5CO[C@@](Cn6cncn6)(c6ccc(F)cc6F)C5)cc4)CC3)cc2)c1=O [posaconazole, Posaconazole] | 460 nM | – | > 10 µM | moderate CYP11A1 inhibition | > 2.5 µg/mL |
